Values belong to the compound of their own block, whether it stands above or below them.
System: 843782-103-R-J1-PDC complex spheroid viability
Assay: Anticancer human tumor 843782-103-R-J1-PDC patient-derived lung adenocarcinoma cell line growth inhibition [RAS]
Conditions: for IC50: curve of first compound; for viability, T/C: stronger effect = lower value
Procedure, shortened: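 Tumour cells grown as complex spheroids with HUVEC endothelial cells and mesenchymal stem cells, treated with RAS pathway inhibitor combinations. Each agent spans half-log steps from near clinical Cmax, or 10 microM where Cmax is unknown.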

[1] = second compound 0.0316 µM, first compound 0.0316 µM
[2] = second compound 0.0316 µM, first compound 0.1 µM
[3] = second compound 0.0316 µM, first compound 0.316 µM
[4] = second compound 0.0316 µM, first compound 1 µM
[5] = second compound 0.1 µM, first compound 0.0316 µM
[6] = second compound 0.1 µM, first compound 0.1 µM
[7] = second compound 0.1 µM, first compound 0.316 µM
[8] = second compound 0.1 µM, first compound 1 µM
[9] = second compound 0.316 µM, first compound 0.0316 µM
[10] = second compound 0.316 µM, first compound 0.1 µM
[11] = second compound 0.316 µM, first compound 0.316 µM
[12] = second compound 0.316 µM, first compound 1 µM
[13] = second compound 1 µM, first compound 0.0316 µM
[14] = second compound 1 µM, first compound 0.1 µM
[15] = second compound 1 µM, first compound 0.316 µM
[16] = second compound 1 µM, first compound 1 µM
[17] = second compound 3.16 µM, first compound 0.0316 µM
[18] = second compound 3.16 µM, first compound 0.1 µM
[19] = second compound 3.16 µM, first compound 0.316 µM
[20] = second compound 3.16 µM, first compound 1 µM
[21] = second compound 10 µM, first compound 0.0316 µM
[22] = second compound 10 µM, first compound 0.1 µM
[23] = second compound 10 µM, first compound 0.316 µM
[24] = second compound 10 µM, first compound 1 µM
[25] = second compound 0.0316 µM, first compound 3.16 µM
[26] = second compound 0.0316 µM, first compound 10 µM
[27] = second compound 0.1 µM, first compound 3.16 µM
[28] = second compound 0.1 µM, first compound 10 µM
[29] = second compound 0.316 µM, first compound 3.16 µM
[30] = second compound 0.316 µM, first compound 10 µM
[31] = second compound 1 µM, first compound 3.16 µM
[32] = second compound 1 µM, first compound 10 µM
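Further: viability read after seven days of compound exposure.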

IC50 (second compound 0.0316 µM): > 1000 nM
IC50 (second compound 0.1 µM): > 1000 nM
IC50 (second compound 0.316 µM): > 1000 nM
IC50 (second compound 1 µM): > 1000 nM
IC50 (second compound 3.16 µM): > 1000 nM
IC50 (second compound 10 µM): < 3.16 nM
Compound: C=CC(=O)N1CCN(c2nc(OCC3CCCN3C)nc3c(F)c(-c4nc(N)cc(C)c4C(F)(F)F)c(Cl)cc23)C(C)C1 (stereo unspecified) + C#Cc1c(F)ccc2cc(O)cc(-c3ncc4c(N5CC6CCC(C5)N6)nc(OCC56CCCN5CC(F)C6)nc4c3F)c12
viability, T/C (second compound 0.0316 µM, first compound 0.00316 µM): 89.9%
viability, T/C (second compound 0.0316 µM, first compound 0.01 µM): 81.1%
viability, T/C [1]: 83.3%
viability, T/C [2]: 76.3%
viability, T/C [3]: 88.4%
viability, T/C [4]: 79.5%
viability, T/C (second compound 0.1 µM, first compound 0.00316 µM): 89.7%
viability, T/C (second compound 0.1 µM, first compound 0.01 µM): 83.1%
viability, T/C [5]: 74.4%
viability, T/C [6]: 78.1%
viability, T/C [7]: 69.8%
viability, T/C [8]: 80.6%
viability, T/C (second compound 0.316 µM, first compound 0.00316 µM): 86.5%
viability, T/C (second compound 0.316 µM, first compound 0.01 µM): 68.1%
viability, T/C [9]: 74.8%
viability, T/C [10]: 78.8%
viability, T/C [11]: 77.4%
viability, T/C [12]: 76.1%
viability, T/C (second compound 1 µM, first compound 0.00316 µM): 81%
viability, T/C (second compound 1 µM, first compound 0.01 µM): 74.1%
viability, T/C [13]: 79.3%
viability, T/C [14]: 69.3%
viability, T/C [15]: 65.8%
viability, T/C [16]: 68.5%
viability, T/C (second compound 3.16 µM, first compound 0.00316 µM): 62.2%
viability, T/C (second compound 3.16 µM, first compound 0.01 µM): 67.2%
viability, T/C [17]: 70%
viability, T/C [18]: 64.3%
viability, T/C [19]: 60.1%
viability, T/C [20]: 64.5%
viability, T/C (second compound 10 µM, first compound 0.00316 µM): 39.6%
viability, T/C (second compound 10 µM, first compound 0.01 µM): 57%
viability, T/C [21]: 44.8%
viability, T/C [22]: 49.7%
viability, T/C [23]: 40.5%
viability, T/C [24]: 40.5%

IC50 (second compound 0.00316 µM): < 31.6 nM
IC50 (second compound 0.01 µM): < 31.6 nM
IC50 (second compound 0.0316 µM): < 31.6 nM
IC50 (second compound 0.1 µM): < 31.6 nM
IC50 (second compound 0.316 µM): < 31.6 nM
IC50 (second compound 1 µM): < 31.6 nM
Compound: CC(=O)OC12COC1CC(O)C1(C)C(=O)C(O)C3=C(C)C(OC(=O)C(O)C(NC(=O)OC(C)(C)C)c4ccccc4)CC(O)(C(OC(=O)c4ccccc4)C21)C3(C)C (stereo unspecified) + C=CC(=O)N1CCN(c2nc(OCC3CCCN3C)nc3c(F)c(-c4nc(N)cc(C)c4C(F)(F)F)c(Cl)cc23)C(C)C1
viability, T/C (second compound 0.00316 µM, first compound 0.0316 µM): 3.83%
viability, T/C (second compound 0.00316 µM, first compound 0.1 µM): 3.97%
viability, T/C (second compound 0.00316 µM, first compound 0.316 µM): 4.72%
viability, T/C (second compound 0.00316 µM, first compound 1 µM): 5.04%
viability, T/C (second compound 0.00316 µM, first compound 3.16 µM): 6.7%
viability, T/C (second compound 0.00316 µM, first compound 10 µM): 7.46%
viability, T/C (second compound 0.01 µM, first compound 0.0316 µM): 3.55%
viability, T/C (second compound 0.01 µM, first compound 0.1 µM): 5.26%
viability, T/C (second compound 0.01 µM, first compound 0.316 µM): 5.77%
viability, T/C (second compound 0.01 µM, first compound 1 µM): 5.45%
viability, T/C (second compound 0.01 µM, first compound 3.16 µM): 4.97%
viability, T/C (second compound 0.01 µM, first compound 10 µM): 8.21%
viability, T/C [1]: 4.29%
viability, T/C [2]: 4.99%
viability, T/C [3]: 5.82%
viability, T/C [4]: 4.83%
viability, T/C [25]: 5.52%
viability, T/C [26]: 6.14%
viability, T/C [5]: 4.07%
viability, T/C [6]: 4.89%
viability, T/C [7]: 5.53%
viability, T/C [8]: 6.37%
viability, T/C [27]: 3.49%
viability, T/C [28]: 6.77%
viability, T/C [9]: 3.97%
viability, T/C [10]: 3.89%
viability, T/C [11]: 3.73%
viability, T/C [12]: 5.43%
viability, T/C [29]: 5.26%
viability, T/C [30]: 7.59%
viability, T/C [13]: 4.07%
viability, T/C [14]: 3.8%
viability, T/C [15]: 4.24%
viability, T/C [16]: 3.62%
viability, T/C [31]: 4.03%
viability, T/C [32]: 7.53%

IC50 (second compound 0.0316 µM): 1850 nM
IC50 (second compound 0.1 µM): 1900 nM
IC50 (second compound 0.316 µM): 1820 nM
IC50 (second compound 1 µM): 1740 nM
IC50 (second compound 3.16 µM): 1260 nM
IC50 (second compound 10 µM): 642 nM
Compound: CCC(CC)c1cc(NC2CCC(N)C2)n2nccc2n1 (stereo unspecified) + C#Cc1c(F)ccc2cc(O)cc(-c3ncc4c(N5CC6CCC(C5)N6)nc(OCC56CCCN5CC(F)C6)nc4c3F)c12
viability, T/C [1]: 107%
viability, T/C [2]: 102%
viability, T/C [3]: 100%
viability, T/C [4]: 108%
viability, T/C [25]: 2.66%
viability, T/C [26]: 0.77%
viability, T/C [5]: 112%
viability, T/C [6]: 105%
viability, T/C [7]: 114%
viability, T/C [8]: 111%
viability, T/C [27]: 2.16%
viability, T/C [28]: 0.62%
viability, T/C [9]: 113%
viability, T/C [10]: 109%
viability, T/C [11]: 99.4%
viability, T/C [12]: 102%
viability, T/C [29]: 2.35%
viability, T/C [30]: 0.68%
viability, T/C [13]: 89.2%
viability, T/C [14]: 98%
viability, T/C [15]: 96.7%
viability, T/C [16]: 95.2%
viability, T/C [31]: 1.42%
viability, T/C [32]: 0.57%
viability, T/C [17]: 86.4%
viability, T/C [18]: 83.9%
viability, T/C [19]: 91.3%
viability, T/C [20]: 62.4%
viability, T/C (second compound 3.16 µM, first compound 3.16 µM): 2.2%
viability, T/C (second compound 3.16 µM, first compound 10 µM): 0.56%
viability, T/C [21]: 67.2%
viability, T/C [22]: 59.9%
viability, T/C [23]: 64.2%
viability, T/C [24]: 41.5%
viability, T/C (second compound 10 µM, first compound 3.16 µM): 0.51%
viability, T/C (second compound 10 µM, first compound 10 µM): 0.22%
